Earlier results, collected in PubChem BioAssay AID1259409 (Chemical Carcinogenesis Research Information System (CCRIS), 2018).

System: rodent chemically induced tumor inhibition, incidence and multiplicity
Assay: CCRIS tumor inhibitor studies
Settings: Route [Inhibitor]: ORAL, Promoter: NONE USED

Question: What does the source list for `ClC(Cl)Cl`?
Answer: tumour outcome (control, treated, inhibition, significance) (Carcinogen: 1,2-DIMETHYLHYDRAZINE DIHYDROCHLORIDE, 306-37-6, Dose [Inhibitor]: 900 MG/L IN DRINKING WATER BEGINNING 7 D POST CARCINOGEN DOSE AND CONTINUING FOR 39 WK (STUDY DURATION: 39 WK), Species: RAT, Strain/Sex: F344/MALE, Target Tissue: Type of Lesion: GASTROINTESTINAL TRACT: TUMOR, Dose [Carcinogen]: 200 MG/KG ONCE): 14/39 (36%), 5/39 (13%), 64%, not calculated; tumour outcome (control, treated, inhibition, significance) (Carcinogen: 1,2-DIMETHYLHYDRAZINE DIHYDROCHLORIDE, 306-37-6, Dose [Inhibitor]: 1800 MG/L IN DRINKING WATER BEGINNING 7 D POST CARCINOGEN DOSE AND CONTINUING FOR 39 WK (STUDY DURATION: 39 WK), Species: RAT, Strain/Sex: F344/MALE, Target Tissue: Type of Lesion: GASTROINTESTINAL TRACT: TUMOR, Dose [Carcinogen]: 200 MG/KG ONCE): 14/39 (36%), 5/40 (13%), 64%, not calculated; tumour outcome (control, treated, inhibition, significance) (Carcinogen: ETHYLNITROSOUREA, 759-73-9, Dose [Inhibitor]: 0, 1800 PPM IN DRINKING WATER BEGINNING AT 5 WK OF AGE AND CONTINUING TO 51 WK OF AGE (STUDY DURATION: 52 WK), Species: MOUSE, Strain/Sex: CD-1/FEMALE, Target Tissue: Type of Lesion: LUNG: ADENOMA, Dose [Carcinogen]: 5 MG/KG ONCE AT 15 D OF AGE): 10/36 (28%), 7/38 (18%), 36%, not calculated; tumour outcome (control, treated, inhibition, significance) (Carcinogen: ETHYLNITROSOUREA, 759-73-9, Dose [Inhibitor]: 0, 1800 PPM IN DRINKING WATER BEGINNING AT 5 WK OF AGE AND CONTINUING TO 51 WK OF AGE (STUDY DURATION: 52 WK), Species: MOUSE, Strain/Sex: CD-1/FEMALE, Target Tissue: Type of Lesion: LUNG: ADENOMA, Dose [Carcinogen]: 20 MG/KG ONCE AT 15 D OF AGE): 25/39 (64%), 23/45 (51%), 20%, not calculated; tumour outcome (control, treated, inhibition, significance) (Carcinogen: ETHYLNITROSOUREA, 759-73-9, Dose [Inhibitor]: 0, 1800 PPM IN DRINKING WATER BEGINNING AT 5 WK OF AGE AND CONTINUING TO 51 WK OF AGE (STUDY DURATION: 52 WK), Species: MOUSE, Strain/Sex: CD-1/FEMALE, Target Tissue: Type of Lesion: LUNG: CARCINOMA, Dose [Carcinogen]: 5 MG/KG ONCE AT 15 D OF AGE): 1/36 (3%), 2/38 (5%), -67%, not calculated; tumour outcome (control, treated, inhibition, significance) (Carcinogen: ETHYLNITROSOUREA, 759-73-9, Dose [Inhibitor]: 0, 1800 PPM IN DRINKING WATER BEGINNING AT 5 WK OF AGE AND CONTINUING TO 51 WK OF AGE (STUDY DURATION: 52 WK), Species: MOUSE, Strain/Sex: CD-1/FEMALE, Target Tissue: Type of Lesion: LUNG: CARCINOMA, Dose [Carcinogen]: 20 MG/KG ONCE AT 15 D OF AGE): 2/39 (5%), 5/45 (11%), -120%, not calculated; tumour outcome (control, treated, inhibition, significance) (Carcinogen: ETHYLNITROSOUREA, 759-73-9, Dose [Inhibitor]: 0, 1800 PPM IN DRINKING WATER BEGINNING AT 5 WK OF AGE AND CONTINUING TO 51 WK OF AGE (STUDY DURATION: 52 WK), Species: MOUSE, Strain/Sex: CD-1/MALE, Target Tissue: Type of Lesion: LIVER: ADENOMA, Dose [Carcinogen]: 5 MG/KG ONCE AT 15 D OF AGE): 8/39 (21%), 1/25 (4%), 81%, p<0.05; tumour outcome (control, treated, inhibition, significance) (Carcinogen: ETHYLNITROSOUREA, 759-73-9, Dose [Inhibitor]: 0, 1800 PPM IN DRINKING WATER BEGINNING AT 5 WK OF AGE AND CONTINUING TO 51 WK OF AGE (STUDY DURATION: 52 WK), Species: MOUSE, Strain/Sex: CD-1/MALE, Target Tissue: Type of Lesion: LIVER: ADENOMA, Dose [Carcinogen]: 20 MG/KG ONCE AT 15 D OF AGE): 22/30 (73%), 12/29 (41%), 44%, p<0.05; tumour outcome (control, treated, inhibition, significance) (Carcinogen: ETHYLNITROSOUREA, 759-73-9, Dose [Inhibitor]: 0, 1800 PPM IN DRINKING WATER BEGINNING AT 5 WK OF AGE AND CONTINUING TO 51 WK OF AGE (STUDY DURATION: 52 WK), Species: MOUSE, Strain/Sex: CD-1/MALE, Target Tissue: Type of Lesion: LIVER: CARCINOMA, Dose [Carcinogen]: 5 MG/KG ONCE AT 15 D OF AGE): 2/39 (5%), 0/25 (0%), 100%, not calculated; tumour outcome (control, treated, inhibition, significance) (Carcinogen: ETHYLNITROSOUREA, 759-73-9, Dose [Inhibitor]: 0, 1800 PPM IN DRINKING WATER BEGINNING AT 5 WK OF AGE AND CONTINUING TO 51 WK OF AGE (STUDY DURATION: 52 WK), Species: MOUSE, Strain/Sex: CD-1/MALE, Target Tissue: Type of Lesion: LIVER: CARCINOMA, Dose [Carcinogen]: 20 MG/KG ONCE AT 15 D OF AGE): 10/30 (33%), 5/29 (17%), 48%, p<0.1; tumour outcome (control, treated, inhibition, significance) (Carcinogen: ETHYLNITROSOUREA, 759-73-9, Dose [Inhibitor]: 0, 1800 PPM IN DRINKING WATER BEGINNING AT 5 WK OF AGE AND CONTINUING TO 51 WK OF AGE (STUDY DURATION: 52 WK), Species: MOUSE, Strain/Sex: CD-1/MALE, Target Tissue: Type of Lesion: LUNG: ADENOMA, Dose [Carcinogen]: 5 MG/KG ONCE AT 15 D OF AGE): 11/39 (29%), 10/25 (40%), -38%, not calculated; tumour outcome (control, treated, inhibition, significance) (Carcinogen: ETHYLNITROSOUREA, 759-73-9, Dose [Inhibitor]: 0, 1800 PPM IN DRINKING WATER BEGINNING AT 5 WK OF AGE AND CONTINUING TO 51 WK OF AGE (STUDY DURATION: 52 WK), Species: MOUSE, Strain/Sex: CD-1/MALE, Target Tissue: Type of Lesion: LUNG: ADENOMA, Dose [Carcinogen]: 20 MG/KG ONCE AT 15 D OF AGE): 15/30 (50%), 12/29 (41%), 18%, not calculated; tumour outcome (control, treated, inhibition, significance) (Carcinogen: ETHYLNITROSOUREA, 759-73-9, Dose [Inhibitor]: 0, 1800 PPM IN DRINKING WATER BEGINNING AT 5 WK OF AGE AND CONTINUING TO 51 WK OF AGE (STUDY DURATION: 52 WK), Species: MOUSE, Strain/Sex: CD-1/MALE, Target Tissue: Type of Lesion: LUNG: CARCINOMA, Dose [Carcinogen]: 5 MG/KG ONCE AT 15 D OF AGE): 1/39 (3%), 1/25 (4%), -33%, not calculated; tumour outcome (control, treated, inhibition, significance) (Carcinogen: ETHYLNITROSOUREA, 759-73-9, Dose [Inhibitor]: 0, 1800 PPM IN DRINKING WATER BEGINNING AT 5 WK OF AGE AND CONTINUING TO 51 WK OF AGE (STUDY DURATION: 52 WK), Species: MOUSE, Strain/Sex: CD-1/MALE, Target Tissue: Type of Lesion: LUNG: CARCINOMA, Dose [Carcinogen]: 20 MG/KG ONCE AT 15 D OF AGE): 2/30 (7%), 4/29 (14%), -100%, not calculated
